Test system: 598228-144-R-J1-PDC complex spheroids, viability
Assay: Anticancer human tumor 598228-144-R-J1-PDC patient-derived serous endometrial adenocarcinoma cell line growth inhibition [CLK]
Conditions: for IC50: curve of first compound; for viability, T/C: stronger effect = lower value
In short: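 Multi-cell-type spheroids combined patient-derived tumor cells with HUVEC endothelial cells and human mesenchymal stem cells. Paired agents were dosed in half-log steps down from about clinical Cmax, or from 10 microM where Cmax was unknown.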

[1] = second compound 0.0316 µM, first compound 0.0316 µM
[2] = second compound 0.0316 µM, first compound 0.1 µM
[3] = second compound 0.0316 µM, first compound 0.316 µM
[4] = second compound 0.0316 µM, first compound 1 µM
[5] = second compound 0.0316 µM, first compound 3.16 µM
[6] = second compound 0.0316 µM, first compound 10 µM
[7] = second compound 0.1 µM, first compound 0.0316 µM
[8] = second compound 0.1 µM, first compound 0.1 µM
[9] = second compound 0.1 µM, first compound 0.316 µM
[10] = second compound 0.1 µM, first compound 1 µM
[11] = second compound 0.1 µM, first compound 3.16 µM
[12] = second compound 0.1 µM, first compound 10 µM
[13] = second compound 0.316 µM, first compound 0.0316 µM
[14] = second compound 0.316 µM, first compound 0.1 µM
[15] = second compound 0.316 µM, first compound 0.316 µM
[16] = second compound 0.316 µM, first compound 1 µM
[17] = second compound 0.316 µM, first compound 3.16 µM
[18] = second compound 0.316 µM, first compound 10 µM
[19] = second compound 1 µM, first compound 0.0316 µM
[20] = second compound 1 µM, first compound 0.1 µM
[21] = second compound 1 µM, first compound 0.316 µM
[22] = second compound 1 µM, first compound 1 µM
[23] = second compound 1 µM, first compound 3.16 µM
[24] = second compound 1 µM, first compound 10 µM
[25] = second compound 3.16 µM, first compound 0.0316 µM
[26] = second compound 3.16 µM, first compound 0.1 µM
[27] = second compound 3.16 µM, first compound 0.316 µM
[28] = second compound 3.16 µM, first compound 1 µM
[29] = second compound 3.16 µM, first compound 3.16 µM
[30] = second compound 3.16 µM, first compound 10 µM
[31] = second compound 10 µM, first compound 0.0316 µM
[32] = second compound 10 µM, first compound 0.1 µM
[33] = second compound 10 µM, first compound 0.316 µM
[34] = second compound 10 µM, first compound 1 µM
[35] = second compound 10 µM, first compound 3.16 µM
[36] = second compound 10 µM, first compound 10 µM
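Further: spheroids exposed to compounds for seven days before readout.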
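Wherever viability, T/C is given: 100% = DMSO vehicle control wells.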

Q: Which IC50 (second compound 0.0316 µM) does the source give for `NC(=O)C(=Cn1cnc(-c2cc(C(F)(F)F)cc(C(F)(F)F)c2)n1)c1cncnc1` + CN1CCN(c2cc(C(=O)Nc3cc4cc(-c5cnn(C)c5)ccc4cn3)ccn2)CC1 here?
A: 0.236 µM

Q: And the IC50 (second compound 0.1 µM)?
A: 0.344 µM

Q: And the IC50 (second compound 0.316 µM)?
A: < 0.00949 µM

Q: And the IC50 (second compound 1 µM)?
A: < 0.00949 µM

Q: And the IC50 (second compound 3.16 µM)?
A: < 0.00949 µM

Q: What about the IC50 (second compound 10 µM) of the same molecule?
A: < 0.00949 µM

Q: And the viability, T/C (second compound 0.0316 µM, first compound 0.00949 µM)?
A: 108%

Q: What about the viability, T/C (second compound 0.0316 µM, first compound 0.03 µM) of the same molecule?
A: 109%

Q: And the viability, T/C (second compound 0.0316 µM, first compound 0.0949 µM)?
A: 72.9%

Q: And the viability, T/C (second compound 0.0316 µM, first compound 0.3 µM)?
A: 47.6%

Q: And the viability, T/C (second compound 0.0316 µM, first compound 0.949 µM)?
A: 29.3%

Q: What about the viability, T/C (second compound 0.0316 µM, first compound 3 µM) of the same molecule?
A: 37.8%

Q: What about the viability, T/C (second compound 0.1 µM, first compound 0.00949 µM) of the same molecule?
A: 114%

Q: And the viability, T/C (second compound 0.1 µM, first compound 0.03 µM)?
A: 87.4%

Q: What about the viability, T/C (second compound 0.1 µM, first compound 0.0949 µM) of the same molecule?
A: 76.9%

Q: And the viability, T/C (second compound 0.1 µM, first compound 0.3 µM)?
A: 47.7%

Q: What about the viability, T/C (second compound 0.1 µM, first compound 0.949 µM) of the same molecule?
A: 38.9%

Q: What about the viability, T/C (second compound 0.1 µM, first compound 3 µM) of the same molecule?
A: 9.13%

Q: And the viability, T/C (second compound 0.316 µM, first compound 0.00949 µM)?
A: 12.9%

Q: What about the viability, T/C (second compound 0.316 µM, first compound 0.03 µM) of the same molecule?
A: 6.08%

Q: What about the viability, T/C (second compound 0.316 µM, first compound 0.0949 µM) of the same molecule?
A: 0.74%

Q: What about the viability, T/C (second compound 0.316 µM, first compound 0.3 µM) of the same molecule?
A: 0.62%

Q: What about the viability, T/C (second compound 0.316 µM, first compound 0.949 µM) of the same molecule?
A: 2.45%

Q: And the viability, T/C (second compound 0.316 µM, first compound 3 µM)?
A: 1.39%

Q: What about the viability, T/C (second compound 1 µM, first compound 0.00949 µM) of the same molecule?
A: 0.59%

Q: What about the viability, T/C (second compound 1 µM, first compound 0.03 µM) of the same molecule?
A: 0.85%

Q: And the viability, T/C (second compound 1 µM, first compound 0.0949 µM)?
A: 1.1%

Q: And the viability, T/C (second compound 1 µM, first compound 0.3 µM)?
A: 1.03%

Q: And the viability, T/C (second compound 1 µM, first compound 0.949 µM)?
A: 0.66%

Q: What about the viability, T/C (second compound 1 µM, first compound 3 µM) of the same molecule?
A: 0.41%

Q: And the viability, T/C (second compound 3.16 µM, first compound 0.00949 µM)?
A: 1.32%

Q: What about the viability, T/C (second compound 3.16 µM, first compound 0.03 µM) of the same molecule?
A: 2.21%

Q: What about the viability, T/C (second compound 3.16 µM, first compound 0.0949 µM) of the same molecule?
A: 2.27%

Q: And the viability, T/C (second compound 3.16 µM, first compound 0.3 µM)?
A: 1.81%

Q: And the viability, T/C (second compound 3.16 µM, first compound 0.949 µM)?
A: 4.57%

Q: And the viability, T/C (second compound 3.16 µM, first compound 3 µM)?
A: 0.46%

Q: What about the viability, T/C (second compound 10 µM, first compound 0.00949 µM) of the same molecule?
A: 0.86%

Q: What about the viability, T/C (second compound 10 µM, first compound 0.03 µM) of the same molecule?
A: 0.87%

Q: What about the viability, T/C (second compound 10 µM, first compound 0.0949 µM) of the same molecule?
A: 1.32%

Q: What about the viability, T/C (second compound 10 µM, first compound 0.3 µM) of the same molecule?
A: 0.79%

Q: What about the viability, T/C (second compound 10 µM, first compound 0.949 µM) of the same molecule?
A: 1.73%

Q: And the viability, T/C (second compound 10 µM, first compound 3 µM)?
A: 0.39%

Q: What does the source list for `CCCS(=O)(=O)Nc1ccc(F)c(C(=O)c2c[nH]c3ncc(-c4ccc(Cl)cc4)cc23)c1F` + CN1CCN(c2cc(C(=O)Nc3cc4cc(-c5cnn(C)c5)ccc4cn3)ccn2)CC1?
A: IC50 (second compound 0.0316 µM): > 10 µM; IC50 (second compound 0.1 µM): > 10 µM; IC50 (second compound 0.316 µM): < 0.0316 µM; IC50 (second compound 1 µM): < 0.0316 µM; IC50 (second compound 3.16 µM): < 0.0316 µM; IC50 (second compound 10 µM): < 0.0316 µM; viability, T/C [1]: 114%; viability, T/C [2]: 136%; viability, T/C [3]: 119%; viability, T/C [4]: 145%; viability, T/C [5]: 115%; viability, T/C [6]: 71%; viability, T/C [7]: 132%; viability, T/C [8]: 144%; viability, T/C [9]: 111%; viability, T/C [10]: 131%; viability, T/C [11]: 112%; viability, T/C [12]: 72.5%; viability, T/C [13]: 20.5%; viability, T/C [14]: 23.8%; viability, T/C [15]: 19.9%; viability, T/C [16]: 15.7%; viability, T/C [17]: 17.3%; viability, T/C [18]: 15.5%; viability, T/C [19]: 1.62%; viability, T/C [20]: 1.8%; viability, T/C [21]: 2.03%; viability, T/C [22]: 1.5%; viability, T/C [23]: 2.94%; viability, T/C [24]: 4.26%; viability, T/C [25]: 2.08%; viability, T/C [26]: 6.53%; viability, T/C [27]: 1.71%; viability, T/C [28]: 2.24%; viability, T/C [29]: 5.08%; viability, T/C [30]: 7.6%; viability, T/C [31]: 1.08%; viability, T/C [32]: 0.79%; viability, T/C [33]: 1.22%; viability, T/C [34]: 1.42%; viability, T/C [35]: 3.13%; viability, T/C [36]: 6.03%

Q: How did the IC50 (second compound 0.0316 µM) turn out when `CC1COCCN1c1cc(C2(S(C)(=N)=O)CC2)nc(-c2ccnc3[nH]ccc23)n1` (stereo unspecified) + CNC(=O)c1ccc(Nc2nc(OC3CCCC3)c3c(-c4ccc5nc(C)oc5c4)c[nH]c3n2)c(OC)c1 was run?
A: 9.48 µM

Q: What about the IC50 (second compound 0.1 µM) of the same molecule?
A: > 10 µM

Q: And the IC50 (second compound 0.316 µM)?
A: > 10 µM

Q: What about the IC50 (second compound 1 µM) of the same molecule?
A: 6.79 µM

Q: And the IC50 (second compound 3.16 µM)?
A: 3.3 µM

Q: What about the IC50 (second compound 10 µM) of the same molecule?
A: 2.53 µM

Q: And the viability, T/C [1]?
A: 101%

Q: What about the viability, T/C [2] of the same molecule?
A: 107%

Q: What about the viability, T/C [3] of the same molecule?
A: 100%

Q: What about the viability, T/C [4] of the same molecule?
A: 97.3%

Q: And the viability, T/C [5]?
A: 73.3%

Q: And the viability, T/C [6]?
A: 48.9%

Q: What about the viability, T/C [7] of the same molecule?
A: 105%

Q: And the viability, T/C [8]?
A: 107%

Q: And the viability, T/C [9]?
A: 115%

Q: And the viability, T/C [10]?
A: 104%

Q: What about the viability, T/C [11] of the same molecule?
A: 68.5%

Q: And the viability, T/C [12]?
A: 57.5%

Q: And the viability, T/C [13]?
A: 100%

Q: What about the viability, T/C [14] of the same molecule?
A: 91.3%

Q: And the viability, T/C [15]?
A: 112%

Q: And the viability, T/C [16]?
A: 89%

Q: What about the viability, T/C [17] of the same molecule?
A: 76.2%

Q: And the viability, T/C [18]?
A: 59.7%

Q: And the viability, T/C [19]?
A: 110%

Q: What about the viability, T/C [20] of the same molecule?
A: 103%

Q: And the viability, T/C [21]?
A: 90.7%

Q: And the viability, T/C [22]?
A: 78.7%

Q: What about the viability, T/C [23] of the same molecule?
A: 69.1%

Q: And the viability, T/C [24]?
A: 41.1%

Q: What about the viability, T/C [25] of the same molecule?
A: 89.3%

Q: What about the viability, T/C [26] of the same molecule?
A: 90.9%

Q: What about the viability, T/C [27] of the same molecule?
A: 80.4%

Q: And the viability, T/C [28]?
A: 72.8%

Q: And the viability, T/C [29]?
A: 50.6%

Q: What about the viability, T/C [30] of the same molecule?
A: 24.6%

Q: And the viability, T/C [31]?
A: 79.6%

Q: What about the viability, T/C [32] of the same molecule?
A: 77.5%

Q: And the viability, T/C [33]?
A: 85.6%

Q: And the viability, T/C [34]?
A: 64.6%

Q: And the viability, T/C [35]?
A: 46.9%

Q: And the viability, T/C [36]?
A: 20.6%

Source: PubChem BioAssay AID2060614 (Molecular Pharmacology Branch, DTP, NCI, 2025)
